From patent US11584744B2 (UNIVERSITY OF WASHINGTON, priority 2017, dated 2023) come the findings set out here.

In brackets after ≈: the same amount, converted by molar mass. Several values for one entry are separate records, joined by “and”; a condition that tells them apart may be missing. Identical values can stand only once. Like-named read-outs stand apart in the source and are kept apart here. Where only a bound is given, the exact number is not on record here.

Usually MIC stands for the least concentration at which growth counts as inhibited. Broadly, the IC50 is the midpoint of a concentration-inhibition curve.

Data set [1] has as its system S. epidermidis (ATCC 12228). The data set is described as follows: MIC susceptibility testing. Particulars: Staphylococcus epidermidis, ATCC12228; read-out: S. epidermidis (ATCC 12228) MIC. It counts as cell-based.
Data set [2] deals with E. faecium (ATCC 19434). Description: MIC susceptibility testing. It counts as cell-based. Particulars: Enterococcus faecium, ATCC19434; read-out: E. faecium (ATCC 19434) MIC. An outline of the steps: (§1)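 CLSI broth microdilution with two-fold compound dilutions, in triplicate; cells added in medium at 1×10^6 CFUs/mL, DMSO ≤0.5%. Media: MHB for S. aureus, CA-MHB for E. coli and E. faecium, CA-MHB plus 3% laked horse blood for S. pyogenes (5% CO2).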

Data set [3] in a line: Protein binding assays, equilibrium dialysis. In kind it is in vitro ADME, mouse. Particulars: 1 μM, equilibrium dialysis 22 hours. As to the method: Protein binding assays: Compound binding to mouse plasma proteins was determined using 96-well equilibrium dialyzer plates (SDIS 9610EN, Nest Group, Inc.). Mouse plasma ([…]-SW-F, BioreclamationIVT, Westbury, N.Y.) containing compound (final concentration 1 μM) was added to a donor chamber as a 150 μL volume. The buffer solution (0.2 mM phosphate buffer, 150 μL) was added to the reciprocal acceptor chamber. Each compound was tested in triplicate. To prepare calibration solution for compound quantifications, blank wells were prepared containing only mouse plasma in a donor well and buffer solution in its acceptor well. The equilibrium dialysis was carried out by rocking the plate for 22 hours in 37° C. Once equilibrium was reached, the plasma and buffer solution from both wells were carefully removed for further analysis with liquid chromatography-tandem mass spectrometry. Plasma solution and internal standard were mixed in the presence of 80% acetonitrile. After centrifuging the solution, the supernatant was transferred to an insert. Similarly, the buffer solution from the acceptor side was prepared containing 40% acetonitrile. Calibration standards for donor and acceptor sides were prepared with compound concentrations of 50 nM, 100 nM, 250 nM, 500 nM, and 1 μM. The compound concentrations from each well were calculated from the calibration curves using Microsoft Excel. The percentage of the test compound bound was determined as follows: % Free=(Concentration buffer chamber/Concentration plasma chamber)×100% % Bound=100%−% Free

Data set [4] relates to E. faecium VRE (ATCC 51559). The data set is described as follows: MIC susceptibility testing. It counts as cell-based, Enterococcus faecium. The following applies: for MIC: Enterococcus faecium. Put shortly:
as §1

Data set [5] has as its target recombinant S. aureus MetRS enzyme (Staphylococcus aureus, UniProt A0A0H2XID2). The data set is described as follows: Inhibition of SaMetRS, ATP depletion assay. In kind it is biochemical. An outline of the steps:
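IC50 values come from sigmoidal fits of percent inhibition, based on ATP left after 120 min as measured by Kinase-Glo. Substrates were 20 μM L-methionine and 150 nM ATP, added after compounds sat 15 min at room temperature with 25 nM His-tagged SaMetRS, bulk E. coli tRNA, pH 7.9 HEPES buffer and 2% DMSO.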

A short description of data set [6]: Liver microsome stability. In kind it is in vitro ADME. The procedure: Microsome stability. Liver microsome stability assays were done by contract research laboratory, Wuxi AppTec Co. (Hubei, China). Briefly, compounds at 1 μM concentration were incubated in singlet with human or CD-1 mouse liver microsomes for 6 time points (0, 5, 10, 20, 30, and 60 min). Loss of parent compound was quantified by liquid chromatography/tandem mass spectrometry.

Data set [7] deals with S. aureus. The data set is described as follows: Serum shift assays (MIC with and without 50% human serum). In kind it is cell-based, Staphylococcus aureus. The following applies: for MIC: Staphylococcus aureus. An outline of the steps: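 MICs run in triplicate with and without 50% heat-inactivated pooled human serum in MHB. Threefold compound dilutions (≤0.5% DMSO), inoculum from 1*10^8 CFUs/mL diluted 1:100, incubated ~20 h at 37° C. MIC = lowest concentration giving ≥90% growth inhibition.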

Setting [8] is: E. faecium ATCC 51559, read-out: (I) E. faecium (ATCC 51559) MIC.
[9] abbreviates: read-out: E. faecium VRE (ATCC 51559) MIC.
[10] abbreviates: read-out: (B) MetRS (S. aureus) IC50.
[11] abbreviates: recombinant enzyme, lower limit of detection 0.025 μM, read-out: MetRS S. aureus (enzyme) IC50.
[12] abbreviates: human, human liver microsomes, read-out: Microsome stability: Human T½.
[13] abbreviates: mouse liver microsomes, CD-1 mouse, read-out: Microsome stability: Mouse T½.
Where [14] appears, read: 50% human serum, read-out: Avg MIC ± SEM (+50% serum).
[15] abbreviates: no serum, read-out: Avg MIC ± SEM (no serum).

Chain of recombinant S. aureus MetRS enzyme (A0A0H2XID2 2-657): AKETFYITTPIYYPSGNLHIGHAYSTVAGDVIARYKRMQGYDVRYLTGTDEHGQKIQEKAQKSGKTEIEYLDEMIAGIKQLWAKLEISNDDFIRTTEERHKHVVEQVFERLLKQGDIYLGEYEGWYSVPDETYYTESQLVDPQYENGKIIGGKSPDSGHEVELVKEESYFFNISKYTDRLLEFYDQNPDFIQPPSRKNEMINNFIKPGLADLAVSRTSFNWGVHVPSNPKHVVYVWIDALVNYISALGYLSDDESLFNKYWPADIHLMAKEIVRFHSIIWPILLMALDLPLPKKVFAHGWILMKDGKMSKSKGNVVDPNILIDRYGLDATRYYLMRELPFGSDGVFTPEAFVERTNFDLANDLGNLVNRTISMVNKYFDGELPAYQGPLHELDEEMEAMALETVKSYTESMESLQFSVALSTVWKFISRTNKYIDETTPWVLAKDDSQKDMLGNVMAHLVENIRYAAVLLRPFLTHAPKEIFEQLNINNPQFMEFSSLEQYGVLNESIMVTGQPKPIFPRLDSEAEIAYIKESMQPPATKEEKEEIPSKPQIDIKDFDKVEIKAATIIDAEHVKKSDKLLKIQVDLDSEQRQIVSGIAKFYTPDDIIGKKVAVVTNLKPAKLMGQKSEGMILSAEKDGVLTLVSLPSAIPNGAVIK

For the compound `CCn1c(Cc2ccc(OC)cc2Cl)cn(Cc2nc3nc(Cl)ccc3[nH]2)c1=O` [Compound 2093, 1-({5-chloro-1H-imidazo[4,5-b]pyridin-2-yl}methyl)-4-[(2-chloro-4-methoxyphenyl)methyl]-3-ethyl-2,3-dihydro-1H-imidazol-2-one], the MIC is 0.625 µg/mL (≈ 1.45 µM) in data set [1]; 0.078 µg/mL (≈ 0.18 µM) in data set [2]; 0.0507 µg/mL (≈ 0.117 µM) in data set [4] (setting [8]); 0.078 µg/mL (≈ 0.18 µM) in data set [4] (setting [9]); 9.59 ± 1.71 µg/mL in data set [7] (setting [14]); 0.036 ± 0.01 µg/mL in data set [7] (setting [15]). In data set [3], the “% binding to mouse plasma” value stood at 99.9%. The “(I) E. faecium (ATCC 51559) MIC” value in data set [4] (E. faecium ATCC 51559) was determined as 0.0387 µg/mL. The IC50 in data set [5] (setting [10]) and in data set [5] (setting [11]) was < 0.025 µM in each case. Besides, the half-life at 1 μM in data set [6] (setting [12]) is 8.3 min; in data set [6] (setting [13]) it was 3.2 min.

Turning to `COc1cc(Cl)c(-c2cccc3nc(Cc4nc5nc(Cl)ccc5[nH]4)cn23)cc1OC` [Compound 2144, 2-({5-chloro-1H-imidazo[4,5-b]pyridin-2-yl}methyl)-5-(2-chloro-4,5-dimethoxyphenyl)imidazo[1,2-a]pyridine], the MIC in data set [1] is 0.156 µg/mL (≈ 0.343 µM); in data set [2], 0.0195 µg/mL (≈ 0.0429 µM); in data set [4] (setting [8]) it was 0.0126 µg/mL (≈ 0.0277 µM); in data set [4] (setting [9]), 0.0195 µg/mL (≈ 0.0429 µM); in data set [7] (setting [14]) it was ~2 µg/mL; in data set [7] (setting [15]), 0.036 ± 0.01 µg/mL. Moreover, in data set [3], the “% binding to mouse plasma” value is given as 98.4%. The “(I) E. faecium (ATCC 51559) MIC” value in data set [4] (E. faecium ATCC 51559) is reported as 0.0140, μg/ml. Besides, the IC50 in data set [5] (setting [10]) and in data set [5] (setting [11]) was < 0.025 µM throughout. The values for the half-life at 1 μM in data set [6] (setting [12]) and in data set [6] (setting [13]) were 16.4 min and 6.5 min, respectively. Also, the “Avg MIC ± SEM (+50% serum)” value in data set [7] (50% human serum) is 2.06 µg/mL and 2.055 ± 0.51 µg/mL.

With `CC(=O)NC[C@H]1CN(c2ccc(N3CCOCC3)c(F)c2)C(=O)O1` [LNZ, linezolid], the MIC in data set [1] was found to be 0.625 µg/mL (≈ 1.85 µM); in data set [2] it was 2.5 µg/mL (≈ 7.41 µM); in data set [4] (setting [9]), 1.25 µg/mL (≈ 3.71 µM); in data set [7] (setting [14]) it was 1.89 ± 0.1 µg/mL; in data set [7] (setting [15]) it was 1.57 ± 0.1 µg/mL. The “% binding to mouse plasma” value in data set [3] was determined as 39.5%. In data set [5] (setting [11]), the 50% inhibitory concentration (IC50) was > 10 µM.

Take `CCn1c(Cc2ccc(OC)cc2Cl)cn(Cc2nc3nc(F)ccc3[nH]2)c1=O` [Compound 2114, 4-[(2-chloro-4-methoxyphenyl)methyl]-3-ethyl-1-({5-fluoro-1H-imidazo[4,5-b]pyridin-2-yl}methyl)-2,3-dihydro-1H-imidazol-2-one]: the MIC in data set [1] stood at 1.25 µg/mL (≈ 3.01 µM); in data set [2] it was 0.078 µg/mL (≈ 0.188 µM); in data set [4] (setting [9]), 0.156 µg/mL (≈ 0.375 µM). The half-maximal inhibitory concentration (IC50) in data set [5] (setting [10]) and in data set [5] (setting [11]) was < 0.025 µM each time. Moreover, the half-life at 1 μM in data set [6] (setting [12]) worked out at 15.2 min; in data set [6] (setting [13]), 7.7 min.

With `CCn1c(Cc2ccc(Cl)cc2Cl)cn(Cc2nc3nc(F)ccc3[nH]2)c1=O` [Compound 2062, 4-[(2,4-dichlorophenyl)methyl]-3-ethyl-1-({5-fluoro-1H-imidazo[4,5-b]pyridin-2-yl}methyl)-2,3-dihydro-1H-imidazol-2-one], the MIC in data set [2] amounted to 0.313 µg/mL (≈ 0.745 µM); in data set [4] (setting [9]), 0.313 µg/mL (≈ 0.745 µM); in data set [7] (setting [14]), 11.8 ± 4.03 µg/mL; in data set [7] (setting [15]) it was 0.057 ± 0.004 µg/mL. Besides, the “% binding to mouse plasma” value in data set [3] was 99.4%. Moreover, the IC50 in data set [5] (setting [10]) and in data set [5] (setting [11]) was < 0.025 µM in each case. For the same compound, the half-life at 1 μM in data set [6] (setting [12]) was 12.6 min; in data set [6] (setting [13]), 8.4 min.

Turning to `Fc1ccc2nc(NCCCN[C@@H]3CCNc4c(Cl)cc(Cl)cc43)[nH]c2n1` [Compound 1717, (4R)-6,8-dichloro—N-[3-({5-fluoro-3H-imidazo[4,5-b]pyridin-2-yl}amino)propyl]-1,2,3,4-tetrahydroquinolin-4-amine, reference compound], the MIC in data set [1] is 0.156 µg/mL (≈ 0.381 µM); in data set [2], 0.039 µg/mL (≈ 0.0953 µM); in data set [4] (setting [9]), 0.156 µg/mL (≈ 0.381 µM); in data set [7] (setting [14]), ~2 µg/mL; in data set [7] (setting [15]) it was 0.088 ± 0.02 µg/mL. Besides, the “% binding to mouse plasma” value in data set [3] is 97.6%. For the same compound, the IC50 in data set [5] (setting [11]) was < 0.025 µM. For the same compound, the half-life at 1 μM in data set [6] (setting [12]) and in data set [6] (setting [13]) was 10.3 min throughout. The “Avg MIC ± SEM (+50% serum)” value in data set [7] (50% human serum) is 2.066 ± 0.19 µg/mL.

As for `Fc1ccc2nc(NCCCNCc3cc(Cl)cc(Cl)c3)[nH]c2n1` [Compound 1614, [(3,5-dichlorophenyl)methyl][3-({5-fluoro-3H-imidazo[4,5-b]pyridin-2-yl}amino)propyl]amine], the MIC worked out at 5 µg/mL (≈ 13.6 µM) in data set [1]; 0.625 µg/mL (≈ 1.7 µM) in data set [2]; 0.625 µg/mL (≈ 1.7 µM) in data set [4] (setting [9]); 42.7 ± 4.1 µg/mL in data set [7] (setting [14]); 2.47 ± 0.35 µg/mL in data set [7] (setting [15]). Also, the “% binding to mouse plasma” value in data set [3] worked out at 96.5%. Also, the IC50 in data set [5] (setting [11]) was < 0.025 µM. Further, the half-life at 1 μM in data set [6] (setting [12]) came out at 9.8 min; in data set [6] (setting [13]) it was 6.6 min.
